# Laboratory results published in ChEMBL document CHEMBL3774317, “Design and synthesis of novel tamoxifen analogues that avoid CYP2D6 metabolism” (Eur J Med Chem, 2016).
# What was measured:
# Format in all cases: functional
# [1] = Cytotoxicity against human HOP92 cells assessed as cell growth at 50 nM after 48 hrs by SRB assay; details: HOP-92, 48 h, read-out: Activity
# [2] = Cytotoxicity against human HCT15 cells assessed as cell growth at 50 nM after 48 hrs by SRB assay; details: HCT-15, 48 h, read-out: Activity
# [3] = Cytotoxicity against human OVCAR8 cells assessed as cell growth at 50 nM after 48 hrs by SRB assay; details: OVCAR-8, 48 h, read-out: Activity
# [4] = Cytotoxicity against human IGROV1 cells assessed as cell growth at 50 uM after 48 hrs by SRB assay; details: IGROV-1, 48 h, read-out: Activity
# [5] = Cytotoxicity against human HCT116 cells assessed as cell growth at 0.5 uM after 48 hrs by SRB assay; details: HCT-116, 48 h, read-out: Activity
# [6] = Cytotoxicity against human TK10 cells assessed as cell growth at 0.5 uM after 48 hrs by SRB assay; details: TK-10, 48 h, read-out: Activity
# [7] = test system: MCF7; test: Cytotoxicity against human MCF7 cells assessed as cell growth at 0.5 uM after 48 hrs by SRB assay; details: MCF7, 48 h, read-out: Activity
# [8] = test system: SR; test: Cytotoxicity against human SR cells assessed as cell growth at 5 nM after 48 hrs by SRB assay; details: read-out: Activity
# [9] = test system: EKVX; test: Cytotoxicity against human EKVX cells assessed as cell growth at 5 nM after 48 hrs by SRB assay; details: read-out: Activity
# [10] = Cytotoxicity against human SNB19 cells assessed as cell growth at 5 nM after 48 hrs by SRB assay; details: SNB-19, 48 h, read-out: Activity
# [11] = test system: SK-MEL-5; test: Cytotoxicity against human SK-MEL-5 cells assessed as cell growth at 5 nM after 48 hrs by SRB assay; details: SK-MEL-5, 48 h, read-out: Activity
# [12] = Cytotoxicity against human UACC62 cells assessed as cell growth at 5 nM after 48 hrs by SRB assay; details: UACC-62, 48 h, read-out: Activity
# [13] = Cytotoxicity against human IGROV1 cells assessed as cell growth at 5 nM after 48 hrs by SRB assay; details: IGROV-1, 48 h, read-out: Activity
# [14] = Cytotoxicity against human DU145 cells assessed as cell growth at 5 nM after 48 hrs by SRB assay; details: DU-145, 48 h, read-out: Activity
# [15] = Cytotoxicity against human Hs 578T cells assessed as cell growth at 5 nM after 48 hrs by SRB assay; details: read-out: Activity
# [16] = test system: T47D; test: Cytotoxicity against human T47D cells assessed as cell growth at 5 nM after 48 hrs by SRB assay; details: read-out: Activity
# [17] = Cytotoxicity against human HCT116 cells assessed as cell growth at 5 uM after 48 hrs by SRB assay; details: HCT-116, 48 h, read-out: Activity
# [18] = Cytotoxicity against human UACC257 cells assessed as cell growth at 5 uM after 48 hrs by SRB assay; details: UACC-257, 48 h, read-out: Activity
# [19] = test system: SK-MEL-2; test: Cytotoxicity against human SK-MEL-2 cells assessed as cell growth at 10^-7 M after 48 hrs by SRB assay; details: SK-MEL-2, 48 h, read-out: Activity
# [20] = Cytotoxicity against human UO31 cells assessed as cell growth at 10^-7 M after 48 hrs by SRB assay; details: UO-31, 48 h, read-out: Activity
# [21] = test system: NCI-H23; test: Cytotoxicity against human NCI-H23 cells assessed as cell growth at 10^-6 M after 48 hrs by SRB assay; details: NCI-H23, 48 h, read-out: Activity
# [22] = Cytotoxicity against human HCC2998 cells assessed as cell growth at 10^-6 M after 48 hrs by SRB assay; details: HCC 2998, 48 h, read-out: Activity
# [23] = Cytotoxicity against human SW620 cells assessed as cell growth at 10^-6 M after 48 hrs by SRB assay; details: SW-620, 48 h, read-out: Activity
# [24] = Cytotoxicity against human SF295 cells assessed as cell growth at 10^-6 M after 48 hrs by SRB assay; details: SF-295, 48 h, read-out: Activity
# [25] = test system: SR; test: Cytotoxicity against human SR cells assessed as cell growth at 10^-8 M after 48 hrs by SRB assay; details: read-out: Activity
# [26] = Cytotoxicity against human SNB19 cells assessed as cell growth at 10^-6 M after 48 hrs by SRB assay; details: SNB-19, 48 h, read-out: Activity
# [27] = test system: SK-MEL-28; test: Cytotoxicity against human SK-MEL-28 cells assessed as cell growth at 10^-6 M after 48 hrs by SRB assay; details: SK-MEL-28, 48 h, read-out: Activity
# [28] = Cytotoxicity against human OVCAR3 cells assessed as cell growth at 10^-6 M after 48 hrs by SRB assay; details: OVCAR-3, 48 h, read-out: Activity
# [29] = Cytotoxicity against human OVCAR4 cells assessed as cell growth at 10^-6 M after 48 hrs by SRB assay; details: OVCAR-4, 48 h, read-out: Activity
# [30] = Cytotoxicity against human OVCAR8 cells assessed as cell growth at 10^-6 M after 48 hrs by SRB assay; details: OVCAR-8, 48 h, read-out: Activity
# [31] = Cytotoxicity against human SKOV3 cells assessed as cell growth at 10^-6 M after 48 hrs by SRB assay; details: SK-OV-3, 48 h, read-out: Activity
# [32] = test system: ACHN; test: Cytotoxicity against human ACHN cells assessed as cell growth at 10^-6 M after 48 hrs by SRB assay; details: read-out: Activity
# [33] = test system: MCF7; test: Cytotoxicity against human MCF7 cells assessed as cell growth at 10^-6 M after 48 hrs by SRB assay; details: MCF7, 48 h, read-out: Activity
# [34] = test system: HT-29; test: Cytotoxicity against human HT-29 cells assessed as cell growth at 10^-5 M after 48 hrs by SRB assay; details: HT-29, 48 h, read-out: Activity
# [35] = test system: MDA-MB-435; test: Cytotoxicity against human MDA-MB-435 cells assessed as cell growth at 10^-5 M after 48 hrs by SRB assay; details: MDA-MB-435, 48 h, read-out: Activity
# [36] = test system: M14; test: Cytotoxicity against human M14 cells assessed as cell growth at 10^-8 M after 48 hrs by SRB assay; details: M14, 48 h, read-out: Activity
# [37] = Cytotoxicity against human BT549 cells assessed as cell growth at 10^-8 M after 48 hrs by SRB assay; details: BT-549, 48 h, read-out: Activity
# [38] = Cytotoxicity against human HOP92 cells assessed as cell growth at 10^-7 M after 48 hrs by SRB assay; details: HOP-92, 48 h, read-out: Activity
# [39] = test system: SK-MEL-5; test: Cytotoxicity against human SK-MEL-5 cells assessed as cell growth at 10^-5 M after 48 hrs by SRB assay; details: SK-MEL-5, 48 h, read-out: Activity
# [40] = test system: T47D; test: Cytotoxicity against human T47D cells assessed as cell growth at 10^-5 M after 48 hrs by SRB assay; details: read-out: Activity
# [41] = Cytotoxicity against human SNB19 cells assessed as cell growth at 10^-4 M after 48 hrs by SRB assay; details: SNB-19, 48 h, read-out: Activity
# [42] = test system: U-251; test: Cytotoxicity against human U251 cells assessed as cell growth at 10^-4 M after 48 hrs by SRB assay; details: U-251, 48 h, read-out: Activity
structure (smiles),measurement,setting,value
CCCCCCCCCC(=O)Oc1ccc(/C(=C(/C)c2ccccc2)c2ccc(OCCN3CCCC3)cc2)cc1,growth at 0.05 µM,[1],83%
same,growth at 0.05 µM,[2],90%
same,growth at 0.05 µM,[3],101%
same,growth at 50 µM,[4],-58%
same,growth at 0.5 µM,[5],71%
same,growth at 0.5 µM,[6],90%
same,growth at 0.5 µM,[7],29%
same,growth at 0.005 µM,[8],99%
same,growth at 0.005 µM,[9],102%
same,growth at 0.005 µM,[10],98%
same,growth at 0.005 µM,[11],100%
same,growth at 0.005 µM,[12],100%
same,growth at 0.005 µM,[13],108%
same,growth at 0.005 µM,[14],102%
same,growth at 0.005 µM,[15],92%
same,growth at 0.005 µM,[16],69%
same,growth at 5 µM,[17],85%
same,growth at 5 µM,[18],101%
C/C(=C(/c1ccc(O)cc1)c1ccc(OCCN2CCCC2)cc1)c1ccccc1,growth at 0.1 µM,[19],103%
same,growth at 0.1 µM,[20],90%
same,growth at 1 µM,[21],86%
same,growth at 1 µM,[22],94%
same,growth at 1 µM,[23],101%
same,growth at 1 µM,[24],94%
same,growth at 0.01 µM,[25],96%
same,growth at 1 µM,[26],104%
same,growth at 1 µM,[27],85%
same,growth at 1 µM,[28],97%
same,growth at 1 µM,[29],89%
same,growth at 1 µM,[30],98%
same,growth at 1 µM,[31],89%
same,growth at 1 µM,[32],93%
same,growth at 1 µM,[33],36%
same,growth at 10 µM,[34],-66%
same,growth at 10 µM,[35],-48%
same,growth at 0.01 µM,[36],92%
same,growth at 0.01 µM,[37],96%
same,growth at 0.1 µM,[38],102%
same,growth at 10 µM,[39],-99%
same,growth at 10 µM,[40],-5%
same,growth at 100 µM,[41],-74%
same,growth at 100 µM,[42],-98%
